Source: US7439266B2, “Malononitrile compound and use thereof” (Sumitomo Chemical Company, Limited, priority 2002, dated 2008)
Read-outs that look alike come from different tables or passages of the source.

Columns and labels:
Musca domestics = assay: Test Example 4: filter paper with sucrose bait, female housefly imagoes; assay type: in vivo, Musca domestica; details: 0.7 ml on filter paper with 30 mg sucrose, ten female imagoes, after 24 hours, read-out: rate of dead pests
Procedure: The formulation obtained according to Formulation Example 5 using the present invention compounds (1), (7), (13)-(17), (20), (28), (32), (36), (37), (39), (44)-(46), (53), (55), (57)-(62), (64)-(70) and (71) respectively, was diluted with water so that the active ingredient concentration came to 500 ppm to prepare a pesticidal solution for test.
(§1) On the bottom of a polyethylene cup having a diameter of 5.5 cm, a filter paper having the same diameter was laid, and 0.7 ml of the above pesticidal solution for test was added dropwise on the filter paper, followed by putting 30 mg of sucrose on it uniformly as a bait. Ten female Musca domestics imagoes were set free in the polyethylene cup and covered it with a lid. After 24 hours, the number of surviving Musca domestics was examined and the rate of dead pests was calculated.

Culex pipiens pallens = assay: Test Example 6: last-instar mosquito larvae in treated water; assay type: in vivo; details: 24 h, read-out: rate of dead pests
Procedure: The formulation obtained according to Formulation Example 5 using the present invention compounds (7), (8)-(11), (14)-(16), (20), (21), (24)-(26), (28), (29), (31), (37)-(39), (44)-(47), (51), (53), (55), (57), (58), (60)-(67), (69), (70) and (71) respectively, was diluted with water so that the active ingredient concentration came to 500 ppm to prepare a pesticidal solution for test.
0.7 ml of above pesticidal solution for test was added to 100 ml of ion exchanged water (active ingredient concentration: 3.5 ppm). Twenty last-instar larvae of Culex pipiens pallens were set free in the solution. After one day, the number of surviving Culex pipiens pallens was examined and the rate of dead pests was calculated.

Blattella germanica = assay: Test Example 5: filter paper with sucrose bait, male German cockroach imagoes; assay type: in vivo; details: 144 h, 0.7 ml on filter paper with 30 mg sucrose, two male imagoes, after 6 days, read-out: rate of dead pests
Procedure: The formulation obtained according to Formulation Example 5 using the present invention compounds (1), (25), (28), (36), (39), (40), (44)-(46), (47), (57), (58), (64), (65) and (67) respectively, was diluted with water so that the active ingredient concentration came to 500 ppm to prepare a pesticidal solution for test.
as §1, with “Two male Blattalla germanica” for “Ten female Musca domestics”, “6 days,” for “24 hours,”, “Blattella germanica” for “Musca domestics”

Aphis gossypii = assay: Test Example 3: spray on cucumber plant, Aphis gossypii; assay type: in vivo; details: 500 ppm, sprayed 20 ml/cup on cucumber plant with about twenty Aphis gossypii; sixth day after the treatment
Procedure: The formulation obtained according to Formulation Example 5 using the present invention compounds (23) was diluted with water so that the active ingredient concentration came to 500 ppm to prepare a pesticidal solution for test.
At the same time, molding Aisai 1 (available from KATAOKA TIKKARIN Co., Ltd.) was put into a 90 ml polyethylene cup, and seeded with cucumber. The plant was grown until the first true leaf was developed, on which about twenty Aphis gossypii were allowed to be parasitic. On the next day, the above pesticidal solution for test was sprayed at a ratio of 20 ml/cup on the cucumber plant. On the sixth day after the application, the number of Aphis gossypii was examined.

Nilaparvata lugens = assay: Test Example 1: spray on rice plants, Nilaparvata lugens larvae, 2000 ppm; assay type: in vivo; details: sprayed 20 ml/cup on rice plants, thirty first-instar larvae released, sixth day after release, 25° C.
Procedure: The formulation obtained according to Formulation Example 5 using the present invention compound (74) and the reference compound (1) respectively, was diluted with water so that the active ingredient concentration came to 2000 ppm to prepare a pesticidal solution for test. At the same time, 50 grams of molding Bonsoru 2 (available from Sumitomo Chemical Co., Ltd.) was put into a polyethylene cup, and 10 to 15 seeds of rice were planted in the polyethylene cup. The rice plants were grown until the second foliage leaves developed and then cut into the same height of 5 cm. The pesticidal solution for test prepared above was sprayed at the rate of 20 ml/cup to these rice plants. After the pesticidal solution sprayed onto the rice plants were dried, they were put into a plastic cup for escape prevention of test pests, and thirty first-instar larvae of Nilaparvata lugens were set free on the rice plants, followed by covering the plastic cup with a lid. Then the plastic cup was left in a greenhouse (25° C.). On the sixth day after the release of larvae of Nilaparvata lugens, the number of parasitic Nilaparvata lugens on the rice plants was examined.

[1] = 0.7 ml of 500 ppm solution in 100 ml water (active ingredient concentration: 3.5 ppm), twenty last-instar larvae, after one day

`CC(C)(C)COC(=O)CC(C#N)(C#N)CCC(F)(F)F` [present invention compound (53), 2-[(2,2-dimethylpropoxy)carbonylmethyl]-2-(3,3,3-trifluoropropyl)malononitrile] showed a pest or weed control at 500 ppm (Musca domestics) of no less than 90% and a pest or weed control at 3.5 µg/mL (Culex pipiens pallens; [1]) of 100%.

`CC(C(=O)OCC(C)(C)C)C(C#N)(C#N)CCC(F)(F)F` (centres unmarked) [present invention compound (70), 2-(1-[(2,2dimethylpropoxy)carbonyl]ethyl)-2-(3,3,3-trifluoropropyl)malononitrile] gave a pest or weed control at 3.5 µg/mL (Culex pipiens pallens; [1]) of 100%.

Compound `CC(C)CC(C)OC(=O)C(C)C(C#N)(C#N)CCC(F)(F)F` (centres unmarked) [present invention compound (69), 2-(1-[(1,3-dimethylbutoxy)carbonyl]ethyl)-2-(3,3,3-trifluoropropyl)malononitrile] has a pest or weed control at 3.5 µg/mL (Culex pipiens pallens; [1]) of 100%.

For `CC(C)(C)OC(=O)CC(C#N)(C#N)CCCC(F)(F)F` [present invention compound (51), 2-(tert-butoxycarbonylmethyl)-2-(4,4,4-trifluorobutyl)malononitrile], the pest or weed control at 3.5 µg/mL (Culex pipiens pallens; [1]) was 100%.

With `CC(C)(C)SC(=O)CC(C#N)(C#N)CCC(F)(F)F` [present invention compound (47), 2-[(tert-butylthio)carbonylmethyl]-2-(3,3,3-trifluoropropyl)malononitrile] the pest or weed control at 500 ppm (Blattella germanica) was 100%.

`CC(C)CCC(C#N)(C#N)CC(=O)OC(C)(C)C` [present invention compound (31), 2-(tert-butoxycarbonylmethyl)-2-(3-methylbutyl)malononitrile] gave a pest or weed control at 3.5 µg/mL (Culex pipiens pallens; [1]) of 100%.

For `C=CC(C)(C)OC(=O)C(C)C(C#N)(C#N)CCC(F)(F)F` (centres unmarked) [present invention compound (67), 2-(1-[(1,1-dimethyl-2-propenyl)oxycarbonyl]ethyl)-2-(3,3,3-trifluoropropyl)malononitrile], the pest or weed control at 500 ppm (Blattella germanica) was 100%.

In the case of `C#CC(C)(CC)OC(=O)C(C)C(C#N)(C#N)CCC(F)(F)F` (centres unmarked) [present invention compound (65), 2-(1-[(1-ethyl-1-methyl-2-propynyl)oxycarbonyl]ethyl)-2-(3,3,3-trifluoropropyl)malononitrile], the pest or weed control at 500 ppm (Blattella germanica) is reported as 100%.

With `N#CC(C#N)(CCC(F)(F)F)CC(=O)OC1CCCCC1` [present invention compound (20), 2-(cyclohexyloxycarbonylmethyl)-2-(3,3,3-trifluoropropyl)malononitrile] the pest or weed control at 500 ppm (Musca domestics) was no less than 90% and the pest or weed control at 3.5 µg/mL (Culex pipiens pallens; [1]) was 100%.

`CC(C)(C)OC(=O)CC(C#N)(C#N)CCF` [present invention compound (23), 2-(tert-butoxycarbonylmethyl)-2-(2-fluoroethyl)malononitrile] was tested, and the “number of parasitic Aphis gossypii” value (Aphis gossypii) was no more than 3.

With `C#CC(C)(C)OC(=O)C(C)C(C#N)(C#N)CCC(F)(F)F` (centres unmarked) [present invention compound (64), 2-(1-[(1,1-dimethyl-2-propynyl)oxycarbonyl]ethyl)-2-(3,3,3-trifluoropropyl)malononitrile] the pest or weed control at 500 ppm (Blattella germanica) was 100%.

`CCCCC(C#N)(C#N)C(C)C(=O)OC(C)(C)C` (centres unmarked) [present invention compound (39), 2-[1-(tert-butoxycarbonyl)ethyl]-2-butylmalononitrile] gave a pest or weed control at 500 ppm (Musca domestics) of no less than 90% and a pest or weed control at 500 ppm (Blattella germanica) of 100%.

Compound `CC(CCl)CC(C#N)(C#N)CC(=O)OC(C)(C)C` (centres unmarked) [present invention compound (25), 2-(tert-butoxycarbonylmethyl)-2-(3-chloro-2-methylpropyl)malononitrile] has a pest or weed control at 500 ppm (Blattella germanica) of 100%.

Compound `C#CC(C)(CC)OC(=O)CC(C#N)(C#N)CCC(F)(F)F` (centres unmarked) [present invention compound (58), 2-((1-ethyl-1-methyl-2-propynyloxycarbonyl)methyl)-2-(3,3,3-trifluoropropyl)malononitrile] has a pest or weed control at 500 ppm (Blattella germanica) of 100% and a pest or weed control at 3.5 µg/mL (Culex pipiens pallens; [1]) of 100%.

`CCOC(=O)CCC(C#N)C#N` [reference compound (1), 2-[2-(ethoxycarbonyl)ethyl]malononitrile, reference compound] was tested, and the “number of parasitic Nilaparvata lugens” value (Nilaparvata lugens) was no less than 20.

With `COC(=O)C(C)C(C#N)(C#N)CCC(F)(F)F` (centres unmarked) [present invention compound (71), 2-[1-(methoxycarbonyl)ethyl]-2-(3,3,3-trifluoropropyl)malononitrile] the pest or weed control at 500 ppm (Musca domestics) was no less than 90% and the pest or weed control at 3.5 µg/mL (Culex pipiens pallens; [1]) was 100%.

`CC=CCC(C#N)(C#N)CC(=O)OC(C)(C)C` [present invention compound (36), 2-(tert-butoxycarbonylmethyl)-2-(2-butenyl)malononitrile] was tested, and the pest or weed control at 500 ppm (Musca domestics) was no less than 90% and the pest or weed control at 500 ppm (Blattella germanica) was 100%.

In the case of `CC(C)(C)OC(=O)CC(C#N)(C#N)CCC(F)=C(F)F` [present invention compound (40), 2-(tert-butoxycarbonylmethyl)-2-(3,4,4-trifluoro-3-butenyl)malononitrile], the pest or weed control at 500 ppm (Blattella germanica) is reported as 100%.

With `CCCC(C#N)(C#N)CC(=O)OC(C)(C)C` [present invention compound (37), 2-(tert-butoxycarbonylmethyl)-2-propylmalononitrile] the pest or weed control at 500 ppm (Musca domestics) was no less than 90%.

Work on `CCOC(=O)C(C)C(C#N)(C#N)CCC(F)(F)F` (centres unmarked) [present invention compound (7), 2-[1-(ethoxycarbonyl)ethyl]-2-(3,3,3-trifluoropropyl)malononitrile] yielded a pest or weed control at 500 ppm (Musca domestics) of no less than 90% and a pest or weed control at 3.5 µg/mL (Culex pipiens pallens; [1]) of 100%.

`CCCCCC(C#N)(C#N)CC(=O)OC(C)(C)C` [present invention compound (29), 2-(tert-butoxycarbonylmethyl)-2-pentylmalononitrile] showed a pest or weed control at 3.5 µg/mL (Culex pipiens pallens; [1]) of 100%.

With `CCOC(=O)CC(C)(C#N)C#N` [present invention compound (74), 2-(ethoxycarbonylmethyl)-2-methylmalononitrile] the “number of parasitic Nilaparvata lugens” value (Nilaparvata lugens) was no more than 3.

Compound `CCCCC(C#N)(C#N)CC(=O)OC(C)(C)C` [present invention compound (28), 2-(tert-butoxycarbonylmethyl)-2-butylmalononitrile] has a pest or weed control at 500 ppm (Musca domestics) of no less than 90%, a pest or weed control at 500 ppm (Blattella germanica) of 100% and a pest or weed control at 3.5 µg/mL (Culex pipiens pallens; [1]) of 100%.

`CCC(C)C(C#N)(C#N)CC(=O)OC(C)(C)C` (centres unmarked) [present invention compound (32), 2-(tert-butoxycarbonylmethyl)-2-(1-methylpropyl)malononitrile] was tested, and the pest or weed control at 500 ppm (Musca domestics) was no less than 90%.

`C#CC(C)(C)OC(=O)CC(C#N)(C#N)CCC(F)(F)F` [present invention compound (57), 2-[(1,1-dimethyl-2-propynyl)oxycarbonylmethyl]-2-(3,3,3-trifluoropropyl)malononitrile] was tested, and the pest or weed control at 500 ppm (Blattella germanica) was 100% and the pest or weed control at 3.5 µg/mL (Culex pipiens pallens; [1]) was 100%.

With `CC(CCl)OC(=O)CC(C#N)(C#N)CCC(F)(F)F` (centres unmarked) [present invention compound (55), 2-[(2-chloro-1-methylethoxy)carbonylmethyl]-2-(3,3,3-trifluoropropyl)malononitrile] the pest or weed control at 500 ppm (Musca domestics) was no less than 90% and the pest or weed control at 3.5 µg/mL (Culex pipiens pallens; [1]) was 100%.

In the case of `CC(C)(C)OC(=O)CC(C#N)(C#N)CCC#N` [present invention compound (21), 2-(tert-butoxycarbonylmethyl)-2-(2-cyanoethyl)malononitrile], the pest or weed control at 3.5 µg/mL (Culex pipiens pallens) is reported as 100%.
